Measured values published in patent US12492403B2, “Aptamers and the use thereof in the treatment of cancer” (FUNDACIÓN PARA LA INVESTIGACIÓN BIOMÉDICA DEL HOSPITAL …, priority 2018, dated 2025).

B1: apMNK2F: precursor (parental) aptamer against MNK1, described in Garcia-Recio, Pinto-Diez et al. 2016 (nucleic acid)
DNA: GCGGATGAAGACTGGTGTGGGGTGGGCGGGCGGGGGTGGGGGTGGTATGGCGCGTTGGCCCTAAATACGAGCAAC
modifications: DNA, backbone and methylation of C not given here; further chemistry not fully specified

What was measured:
[1] = system: MCF7 cells; assay: MTT activity assay, aptamers transfected with Lipofectamine 2000; format: cell-based, human; settings: MCF7, aptamer 250 nM, 48 hours after transfection
Procedure: (§1) FIG. 3. Effect of the aptamers on MTT activity of MCF7 and MDA-MB-231 cells. The cells were seeded in 96-well plates at a density of 10^4 cells/well. After 16-24 hours, they were transfected with aptamers apMNKQ1, apMNKQ2, apMNKQ3, and apMNKQ4 at 250 nM for 48 hours after which MTT activity assays were performed. The bars represent the mean±SEM of 3-6 independent experiments (*p<0.05, **p<0.01, and ***p<0.001 with respect to the control aptamer AT).
(§2) FIGS. 8A-8C. Effect of aptamer apMNKQ2 on MTT activity of breast cell lines. MCF7, MDA-MB-231, and MDA-MB-468 cells were seeded in 96-well plates at a density of 10^4 cells/well. […] The graphs represent the means±SEM of 3 independent experiments (*p<0.05, **p<0.01, and ***p<0.001 with respect to the control AT).
(§3) The Lipofectamine™ 2000 system (Invitrogen, USA) was used to treat cells with the different aptamers. To prepare the DNA-lipofectamine complex, lipofectamine and DNA were separately diluted in opti-MEM (Gibco, USA) and left to incubate at room temperature for 5 minutes. They were then mixed to form lipofectamine-DNA complexes and incubated for 20 minutes at room temperature. Finally, the mixture was added to the cells that had been washed twice with antibiotic-free medium to prevent the interference thereof with lipofectamine. The cells were incubated at 37° C. for 5 hours, after which the reagent was removed and a complete medium was added.
(§4) MTT activity. The cells were seeded in 96-well plates and after having been transfected, the culture medium was removed and 100 μL/well of MTT at 1 mg/ml in culture medium were added. The plates were incubated for 90 minutes in an incubator with a moisture-saturated environment at 37° C. and 5% CO2/[…] and 100 μL/well of a lysis solution (10% SDS and 10 mM HCl) were added for dissolving the crystals. After 48 hours, the reduction of MTT was determined by means of spectrophotometry in Infinite F200 (TECAN, Switzerland) at 540 nm.
(§5) The results were expressed as the percentage of viability with respect to the control or in absorbance units.

[2] = system: MDA-MB-231 cells; assay: as above; format: cell-based, human; settings: MDA-MB-231, aptamer 250 nM, 48 hours after transfection
Procedure: as §1, §2, §3, §4, §5

[3] = system: MNK1; assay: Recognition of the two isoforms of MNK1 by precursor and truncated aptamers; format: binding
[4] = system: AKT; assay: Western blot of phosphorylation, combined therapy study; format: cell-based, human; settings: MDA-MB-231 and MCF7 cells, 24 hours
Procedure: (§6) FIG. 22A & 22B. Combined therapy studies of apMNKQ2 and everolimus. […] The different antibodies used are indicated.
(§7) Seventy-two hours after treatment, MTT activity was measured.

[5] = system: eIF4E; assay: as above; format: cell-based, human; settings: MDA-MB-231 and MCF7 cells, 24 hours
Procedure: as §6, §7

[6] = system: ribosomal protein S6; assay: as above; format: cell-based, human; settings: MDA-MB-231 and MCF7 cells, 24 hours
Procedure: as §6, §7

[7] = system: MCF7 cells; settings: cells with IC50 greater than 1 nM are considered resistant; cited from earlier work
[8] = system: MDA-MB-231 cells; settings: cells with IC50 greater than 1 nM are considered resistant; cited from earlier work
[9] = system: DNase I; settings: 1 unit of DNase I, 5 minutes at 37° C., same assay conditions (Garcia-Recio, Pinto-Diez et al. 2016); cited from earlier work

Molecule | effect on MTT activity [1] | inhibition of MTT activity [2] | recognition of the two isoforms of MNK1 (MNK1a, MNK1b) [3] | further results
5′-GGGTGGTATGGCGCGTTGGCCC-3′ (DNA, backbone and methylation of C not given here; further chemistry not fully specified) [apMNKQ4, 22-nucleotide aptamer designed from apMNK2FT] | partial effect | about 15% |  | 
5′-TTTTTGGGGTGGGCGGGCGGGGGTGGGGGTGGTATGGCGCGTTGGCCC-3′ (DNA, backbone and methylation of C not given here; further chemistry not fully specified) [apMNK2FT, truncated 48-nucleotide aptamer derived from precursor aptamer apMNK2F] |  |  | recognized both isoforms in a similar manner | 
5′GGGTGGGGGTGGT-3′ (DNA, backbone not given here; further chemistry not fully specified) [apMNKQ3, 13-nucleotide aptamer designed from apMNK2FT] | partial effect | about 15% |  | 
5′TGGGGTGGGCGGGCGGGG-3′ (DNA, backbone and methylation of C not given here; further chemistry not fully specified) [apMNKQ1, 18-nucleotide aptamer designed from apMNK2FT based on G-quadruplex formation] | partial effect | 30% |  | 
CO[C@H]1C[C@@H]2CC[C@@H](C)[C@@](O)(O2)C(=O)C(=O)N2CCCC[C@H]2C(=O)O[C@H]([C@H](C)C[C@@H]2CC[C@@H](OCCO)[C@H](OC)C2)CC(=O)[C@H](C)/C=C(\C)[C@@H](O)[C@@H](OC)C(=O)[C@H](C)C[C@H](C)/C=C/C=C/C=C/1C [everolimus, 40-O-(2-hydroxyethyl) derivative of sirolimus, reference compound] |  |  |  | phosphorylation of AKT [4]: increased; phosphorylation of eIF4E [5]: increased; phosphorylation of ribosomal protein S6 (dependent on mTOR activity) [6]: inhibiting mTOR; sensitivity of the cell line to the drug [7]: resistant; sensitivity of the cell line to the drug [8]: resistant
B1 |  |  | higher affinity for MNK1b | stability [9]: 0%
